# Experimental data taken from article PMC13095408, “DBeQ derivative targets vacuolar protein sorting 4 functions in cancer cells and suppresses tumor growth in mice” (The Journal of Pharmacology and Experimental Therapeutics, 2025).
# How the values were obtained:
# recombinant human VCP = target: T1, recombinant human VCP (Rattus norvegicus, UniProt P46462); assay: VCP ATPase activity, EnzChek Phosphate assay; type: biochemical
# T1 construct: His (N); host or cells: Escherichia coli BL21(DE3)
# T1 sequence (P46462 2-806 limits assumed): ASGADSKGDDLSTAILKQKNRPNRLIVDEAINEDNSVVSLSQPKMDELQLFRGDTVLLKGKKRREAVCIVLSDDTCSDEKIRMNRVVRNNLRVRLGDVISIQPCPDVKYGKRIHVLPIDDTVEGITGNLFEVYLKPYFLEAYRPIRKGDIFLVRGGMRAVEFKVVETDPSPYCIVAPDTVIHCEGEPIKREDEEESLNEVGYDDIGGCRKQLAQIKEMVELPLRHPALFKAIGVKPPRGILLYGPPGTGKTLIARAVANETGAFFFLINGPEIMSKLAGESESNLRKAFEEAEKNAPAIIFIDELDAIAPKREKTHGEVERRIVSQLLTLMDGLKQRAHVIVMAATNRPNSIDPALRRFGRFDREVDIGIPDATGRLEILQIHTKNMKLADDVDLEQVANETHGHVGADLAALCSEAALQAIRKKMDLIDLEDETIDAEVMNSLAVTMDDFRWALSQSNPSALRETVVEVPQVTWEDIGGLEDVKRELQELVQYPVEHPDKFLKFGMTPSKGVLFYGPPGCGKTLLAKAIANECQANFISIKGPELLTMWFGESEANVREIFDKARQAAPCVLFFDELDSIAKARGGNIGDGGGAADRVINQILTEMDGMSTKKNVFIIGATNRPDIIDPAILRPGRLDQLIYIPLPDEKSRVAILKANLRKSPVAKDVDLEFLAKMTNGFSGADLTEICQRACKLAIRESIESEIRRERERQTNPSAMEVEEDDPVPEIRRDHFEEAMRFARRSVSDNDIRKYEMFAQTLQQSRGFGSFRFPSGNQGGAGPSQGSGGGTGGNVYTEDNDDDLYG
# Experimental: (§1) VPS4B and VCP ATPase activities were measured using the EnzChek Phosphate assay for the quantification of released phosphate. Assay buffers were based on literature precedents ([Cupido et al, 2019], [2021]) as follows: VPS4B buffer (20 mM HEPES-KOH, pH 7.4, 25 mM KOAc, 2 mM MgCl2, 5 mM (NH4)2SO4, 0.5 mM CaCl2, 2.5 mM DTT, 0.1 mg/mL BSA, 0.005% v/v Triton X-100), VCP buffer (20 mM HEPES-NaOH, pH 7.4, 20 mM NaCl, 10 mM MgCl2, 5 mM (NH4)2SO4, 0.5 mM CaCl2, 2.5 mM DTT, 0.1 mg/mL BSA, 0.005% v/v Triton X-100). In black clear-bottom 384-well plates, 22.5 μL of 5% DMSO or 40× test compounds diluted in the respective assay buffer was added to each well. ATPases were diluted to 1 μM in the respective buffers containing 2× EnzChek Phosphate assay coupling reagents of 400 μM MESG and 2 U of PNP, then 25 μL was added to each well. Plates were mixed at 1000 rpm for 30 minutes at RT while being protected from light. The reaction was initiated by adding 2.5 μL of 20 mM MgATP or water followed by mixing at 1200 rpm for 30 seconds at RT. Plates were measured at 360 nm using a CLARIOstar plate reader (BMG LABTECH) for 20 minutes at 37 °C. ATPase activity was calculated as the amount of phosphate released over a 5-minute interval under linear initial velocity conditions. The remaining ATPase activity was calculated by normalizing compound-treated activity values to the DMSO control. IC50 was calculated by fitting normalized values to a sigmoidal dose-response curve with Hill slope = −1 using Graph Pad Prism 10.0.
# (§2) To identify VPS4i, we developed enzyme- and cell-based VPS4 functional assays to serve as VPS4i-screening platforms. For the enzyme-based assay, we used the colorimetric EnzChek Phosphate assay that detects free phosphate with the advantage of continuous measurement of ATP hydrolysis over time. […] Due to the high sequence and structural similarity of AAA-ATPases, we also established a VCP ATPase assay to evaluate hit selectivity. […] For the cell-based assay, our approach was based on how VPS4 inhibition causes the accumulation of ESCRT-III ([Babst et al, 1998]; [Katoh et al, 2003]). We used an N-terminal GFP-tagged CHMP4B reporter system because it is the most abundant ESCRT-III subunit ([Katoh et al, 2004]; [Teis et al, 2008]). Our aim was to test compounds under short-term serum and amino acid starvation to stimulate ESCRT activity for easier detection of inhibitors ([Takahashi et al, 2018], [2019]). […] Overall, we established 2 systems for VPS4i screening, a VPS4B ATPase activity assay and a GFP-CHMP4B accumulation cell-based assay.
# [1] = test system: GFP-CHMP4B-expressing U2OS cells; assay: GFP-CHMP4B accumulation cell-based assay (high-content microscopy)
# Experimental: Plates were then scanned using the 20× objective for 1 hour with ≥100 cells/well across 6 fields/well. […] For all other assays, the cells were cultured overnight in black glass-bottom 96-well plates (Cellvis; P96-1.5H-N) then stained, rinsed, and treated with SM containing the indicated compounds (0.1% DMSO or 0.1% DMSO/0.1% ethanol [vehicle] final). Plates were scanned using the 20× NA .70 objective at the indicated intervals with ≥ 300 cells/well across 3 fields/well. […]
# VPS4B = target: T2, VPS4B (Homo sapiens, UniProt O75351); assay: VPS4B ATPase activity, EnzChek Phosphate assay; type: biochemical; parameters: His tag (pET28a vector-encoded) (N); made in house; host or cells: Escherichia coli BL21(DE3)
# T2 sequence (O75351 1-444): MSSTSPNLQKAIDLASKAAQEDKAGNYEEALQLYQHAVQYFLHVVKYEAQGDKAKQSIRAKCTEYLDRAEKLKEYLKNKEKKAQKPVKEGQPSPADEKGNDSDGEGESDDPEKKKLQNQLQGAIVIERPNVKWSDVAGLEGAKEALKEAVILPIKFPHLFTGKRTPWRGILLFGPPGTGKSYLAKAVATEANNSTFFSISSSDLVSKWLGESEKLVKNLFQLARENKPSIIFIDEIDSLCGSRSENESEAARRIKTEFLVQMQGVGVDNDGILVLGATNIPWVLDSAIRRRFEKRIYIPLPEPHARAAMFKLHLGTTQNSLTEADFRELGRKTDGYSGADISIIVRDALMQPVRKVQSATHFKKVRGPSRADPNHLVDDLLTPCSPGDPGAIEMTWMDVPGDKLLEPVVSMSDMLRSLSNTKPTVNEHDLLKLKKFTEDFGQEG
# Experimental: as §1, §2
# [2] = screened at 5 µM, mean ± S.D., Supplemental Table 2
# [3] = screened at 1 µM, mean ± S.D., Supplemental Table 2
# [4] = screened at 1 μM, starvation media, 1 hour, foci intensity per cell normalized to 4-107, mean ± SD, Table 1
# [5] = remaining ATPase activity, screened at 5 μM, mean ± SD, Table 1
# [6] = remaining ATPase activity, screened at 5 μM, mean ± SD, Table 2
SMILES,VCP ATPase (% DMSO) (recombinant human VCP; [2]),"GFP-CHMP4B (% 4-107) [1, 3]",VPS4B ATPase (% DMSO) (VPS4B; [2]),"GFP-CHMP4B (% 4-107) [1, 4]",VPS4B ATPase (% DMSO) (VPS4B; [5]),"GFP-CHMP4B (% 4-107) ([1]; screened at 1 µM, mean ± S.D., Supplemental Table 2, listed as 7-07)","VPS4B ATPase (% DMSO) (VPS4B; screened at 5 µM, mean ± S.D., Supplemental Table 2, listed as 7-07)",VCP ATPase (% DMSO) (recombinant human VCP; [6])
COc1cccc(CNc2nc(NCc3ccccc3)c3cccc(OC)c3n2)c1 [Compound 5-27-2],100.03 ± 0.81 % DMSO,71.11 ± 0.37 % 4-107,51.50 ± 0.83 % DMSO,,,,,
COc1cccc2c(NCc3ccccc3)nc(NCc3ccc(F)cc3)nc12 [Compound 5-151],93.82 ± 0.90 % DMSO,73.02 ± 27.67 % 4-107,47.66 ± 0.34 % DMSO,,,,,
COc1ccc2c(NCc3ccccc3)nc(NCc3ccccc3)nc2c1 [Compound 6],86.15 ± 0.65 % DMSO,33.47 ± 15.62 % 4-107,35.59 ± 2.28 % DMSO,33.47 ± 15.62 % 4-107,35.59 ± 2.28 % DMSO,,,
COc1cccc2c(NCc3ccccc3)nc(NCc3ccc(C#N)cc3)nc12 [Compound 7-05],95.43 ± 0.86 % DMSO,42.59 ± 0.15 % 4-107,54.50 ± 2.02 % DMSO,,,,,
COc1cccc2c(NCc3ccccc3)nc(NC(c3ccccc3)c3ccccc3)nc12 [Compound 7-23],,23.20 ± 6.42 % 4-107,37.77 ± 2.37 % DMSO,,,,,
Nc1cccc2c(NCc3ccccc3)nc(NCc3ccccc3)nc12 [Compound 7-31],69.70 ± 8.05 % DMSO,48.41 ± 2.74 % 4-107,,,,,,
COc1ccc2nc(NCc3ccccc3)nc(NCc3ccccc3)c2c1 [Compound 7],,8.92 ± 2.87 % 4-107,43.86 ± 1.20 % DMSO,8.92 ± 2.87 % 4-107,43.86 ± 1.20 % DMSO,,,
COC(=O)c1ccc2ccn(-c3nc(NCc4ccccc4)c4cccc(OC)c4n3)c2c1 [Compound 8],,1.38 ± 0.73 % 4-107,82.10 ± 2.19 % DMSO,1.38 ± 0.73 % 4-107,82.10 ± 2.19 % DMSO,,,
COc1cccc2c(NCc3ccccc3)nc(-c3cccc4ccccc34)nc12 [Compound 10],,3.97 ± 0.16 % 4-107,49.12 ± 2.89 % DMSO,3.97 ± 0.16 % 4-107,49.12 ± 2.89 % DMSO,,,
COc1cccc2c(NCc3ccccc3)nc(NCc3ccc4ccccc4c3)nc12 [Compound 12],,10.42 ± 6.42 % 4-107,30.39 ± 0.43 % DMSO,10.42 ± 6.42 % 4-107,30.39 ± 0.43 % DMSO,,,
COc1cccc2c(NCc3ccccc3)nc(NCc3cccc4ccccc34)nc12 [Compound 13],98.67 ± 2.86 % DMSO,36.79 ± 0.89 % 4-107,28.27 ± 0.04 % DMSO,36.79 ± 0.89 % 4-107,28.27 ± 0.04 % DMSO,,,
COC(=O)c1cccc(CNc2nc(NCc3ccccc3)c3cccc(OC)c3n2)c1 [Compound 14],,13.39 ± 9.03 % 4-107,42.10 ± 0.26 % DMSO,13.39 ± 9.03 % 4-107,42.10 ± 0.26 % DMSO,,,
COc1cccc2c(NCc3ccccc3)nc(NCc3cccc(C(F)(F)F)c3)nc12 [Compound 15],,25.61 ± 20.09 % 4-107,28.57 ± 1.13 % DMSO,25.61 ± 20.09 % 4-107,28.57 ± 1.13 % DMSO,,,
COc1cccc2c(NCc3ccccc3)nc(NCc3cccc(OC(F)(F)F)c3)nc12 [Compound 16],,,,7.52 ± 1.95 % 4-107,41.50 ± 2.98 % DMSO,7.52 ± 1.95 % 4-107,41.50 ± 2.98 % DMSO,
COc1cccc2c(NCc3ccccc3)nc(NCc3cccc(C#N)c3)nc12 [Compound 17],91.83 ± 3.79 % DMSO,82.61 ± 11.90 % 4-107,55.59 ± 2.13 % DMSO,82.61 ± 11.90 % 4-107,55.59 ± 2.13 % DMSO,,,91.83 ± 5.36 % DMSO
COc1cccc2c(NCc3ccccc3)nc(NCc3ccc(C)cc3)nc12 [Compound 18],83.40 ± 3.28 % DMSO,48.09 ± 1.26 % 4-107,27.55 ± 0.01 % DMSO,48.09 ± 1.26 % 4-107,27.55 ± 0.01 % DMSO,,,83.40 ± 4.64 % DMSO
COc1ccc(CNc2nc(NCc3ccccc3)c3cccc(OC)c3n2)cc1 [Compound 19],107.28 ± 1.88 % DMSO,86.61 ± 22.39 % 4-107,29.98 ± 0.49 % DMSO,86.61 ± 22.39 % 4-107,29.98 ± 0.49 % DMSO,,,107.28 ± 2.66 % DMSO
COc1cccc2c(NCc3ccccc3)nc(NCc3cccc(F)c3)nc12 [Compound 20],80.50 ± 0.40 % DMSO,99.48 ± 22.3 % 4-107,35.22 ± 0.66 % DMSO,99.48 ± 22.30 % 4-107,35.22 ± 0.66 % DMSO,,,80.50 ± 0.57 % DMSO
COc1ccc(CNc2nc(NCc3ccc(OC)cc3)c3cccc(OC)c3n2)cc1 [Compound 21],100.96 ± 0.28 % DMSO,37.69 ± 13.03 % 4-107,33.98 ± 3.50 % DMSO,37.69 ± 13.03 % 4-107,33.98 ± 3.50 % DMSO,,,
